Experimental data reported in patent US20250296953A1, “3,4-THIAZOLO-STEROIDS AND METHODS OF MAKING AND USING THE SAME” (Arkansas State University - Jonesboro, priority 2018, published 2025).
Like-named read-outs stand apart in the source and are kept apart here.

Tests used:
[1] = test system: 60 different human tumor cell lines; settings: five dose; for CC50: read-out: LC50
glioblastoma (SF-295) = assay: NCI 60 five dose screen; settings: SF-295 (CNS Cancer), five dose
RPMI-8226 = assay: NCI 60 five dose screen; settings: RPMI-8226 (Leukemia), five dose
SR = assay: NCI 60 five dose screen; settings: SR (Leukemia), five dose
[2] = NCI-H23 (Non-small Cell Lung Cancer)
[3] = NCI-H226 (Non-small Cell Lung Cancer)
[4] = NCI-H322M (Non-small Cell Lung Cancer)
[5] = NCI-H460 (Non-small Cell Lung Cancer)
[6] = NCI-H522 (Non-small Cell Lung Cancer)

C[C@]12CCc3nc(N)sc3C1=CC[C@@H]1[C@@H]2CC[C@]2(C)C(=NNC(N)=O)CC[C@@H]12 [IVb.1]
GI50 [1, 2]: 1.78 µM | TGI [1, 2]: 3.32E−6 | GI50 [1, 3]: 2.09 µM | TGI [1, 3]: 4.91E6 | GI50 [1, 4]: 1.77 µM | TGI [1, 4]: 3.55E−6 | GI50 [1, 5]: 1.92 µM | TGI [1, 5]: 3.61E−6 | GI50 [1, 6]: 1.93 µM | TGI [1, 6]: 4.06E−6 | GI50 ([1]; NCI/ADR-RES (Ovarian Cancer)): 1.94 µM | TGI ([1]; NCI/ADR-RES (Ovarian Cancer)): 3.87E−6 | GI50 ([1]; OVCAR-3 (Ovarian Cancer)): 1.87 µM | TGI ([1]; OVCAR-3 (Ovarian Cancer)): 3.44E−6 | GI50 ([1]; OVCAR-4 (Ovarian Cancer)): 1.74 µM | TGI ([1]; OVCAR-4 (Ovarian Cancer)): 3.17E−6 | GI50 ([1]; OVCAR-5 (Ovarian Cancer)): 1.71 µM | GI50 ([1]; OVCAR-8 (Ovarian Cancer)): 1.85 µM | TGI ([1]; OVCAR-8 (Ovarian Cancer)): 3.63E−6 | GI50 ([1]; PC-3 (Prostate Cancer)): 1.25 µM | TGI ([1]; PC-3 (Prostate Cancer)): 2.75E−6 | GI50 ([1]; RXF 393 (Renal Cancer)): 1.61 µM | TGI ([1]; RXF 393 (Renal Cancer)): 3.23E−6 | GI50 ([1]; SF-268 (CNS Cancer)): 1.78 µM | TGI ([1]; SF-268 (CNS Cancer)): 4.11E−6 | GI50 ([1]; SK-MEL-2 (Melanoma)): 1.98 µM | TGI ([1]; SK-MEL-2 (Melanoma)): 4.58E−6 | GI50 ([1]; SK-MEL-5 (Melanoma)): 1.57 µM | TGI ([1]; SK-MEL-5 (Melanoma)): 2.97E−6 | GI50 ([1]; SK-MEL-28 (Melanoma)): 1.63 µM | TGI ([1]; SK-MEL-28 (Melanoma)): 3.10E−6 | GI50 ([1]; SK-OV-3 (Ovarian Cancer)): 6.21 µM | TGI ([1]; SK-OV-3 (Ovarian Cancer)): 2.23E−6 | GI50 ([1]; SN12C (Renal Cancer)): 1.89 µM | TGI ([1]; SN12C (Renal Cancer)): 3.45E−6 | GI50 ([1]; SNB-19 (CNS Cancer)): 1.87 µM | TGI ([1]; SNB-19 (CNS Cancer)): 3.62E−6 | GI50 ([1]; SNB-75 (CNS Cancer)): 1.58 µM | TGI ([1]; SNB-75 (CNS Cancer)): 3.50E−6 | GI50 ([1]; SW-620 (Colon Cancer)): 1.69 µM | TGI ([1]; SW-620 (Colon Cancer)): 3.39E−6 | GI50 ([1]; T-47D (Breast Cancer)): 1.86 µM | TGI ([1]; T-47D (Breast Cancer)): 3.80E−6 | GI50 ([1]; TK-10 (Renal Cancer)): 2.29 µM | TGI ([1]; TK-10 (Renal Cancer)): 5.45E−6 | GI50 ([1]; U251 (CNS Cancer)): 1.77 µM | TGI ([1]; U251 (CNS Cancer)): 3.22E−6 | GI50 ([1]; UACC-62 (Melanoma)): 1.63 µM | TGI ([1]; UACC-62 (Melanoma)): 3.13E−6 | GI50 ([1]; UACC-257 (Melanoma)): 2.4 µM | TGI ([1]; UACC-257 (Melanoma)): 5.83E−6 | GI50 ([1]; UO-31 (Renal Cancer)): 1.52 µM | TGI ([1]; UO-31 (Renal Cancer)): 2.88E−6 | CC50 ([1]; 786-0 (Renal Cancer)): 5.96 µM | CC50 ([1]; A498 (Renal Cancer)): 27.8 µM | CC50 ([1]; A549/ATCC (Non-small Cell Lung Cancer)): 7.51 µM | CC50 ([1]; ACHN (Renal Cancer)): 5.68 µM | CC50 ([1]; BT-549 (Breast Cancer)): 88.5 µM | CC50 ([1]; CAKI-1 (Renal Cancer)): 7.49 µM | CC50 ([1]; CCRF-CEM (Leukemia)): > 100 µM | CC50 ([1]; COLO 205 (Colon Cancer)): 9.25 µM | CC50 ([1]; DU-145 (Prostate Cancer)): 6.66 µM | CC50 ([1]; EKVX (Non-small Cell Lung Cancer)): 7.32 µM | CC50 ([1]; HCC-2998 (Colon Cancer)): 6.15 µM | CC50 ([1]; HCT-15 (Colon Cancer)): 5.6 µM | CC50 ([1]; HCT-116 (Colon Cancer)): 9.07 µM | CC50 ([1]; HL-60(TB) (Leukemia)): > 100 µM | CC50 ([1]; HOP-62 (Non-small Cell Lung Cancer)): 6.54 µM | CC50 ([1]; HOP-92 (Non-small Cell Lung Cancer)): 6.6 µM | CC50 ([1]; HT29 (Colon Cancer)): 7.41 µM | CC50 ([1]; IGROV1 (Ovarian Cancer)): 6.63 µM | CC50 ([1]; K-562 (Leukemia)): 40.4 µM | CC50 ([1]; KM12 (Colon Cancer)): 6.79 µM | CC50 ([1]; LOX IMVI (Melanoma)): 5.72 µM | CC50 ([1]; M14 (Melanoma)): 7.31 µM | CC50 ([1]; MALME-3M (Melanoma)): 6.9 µM | CC50 ([1]; MCF7 (Breast Cancer)): 6.5 µM | CC50 ([1]; MDA-MB-231/ATCC (Breast Cancer)): 6.9 µM | CC50 ([1]; MDA-MB-435 (Melanoma)): 5.49 µM | CC50 ([1]; MDA-MB-468 (Breast Cancer)): 6.3 µM | CC50 ([1]; MOLT-4 (Leukemia)): 93.3 µM | CC50 [1, 2]: 6.21 µM | CC50 [1, 3]: 17.4 µM | CC50 [1, 5]: 6.79 µM | CC50 [1, 6]: 8.55 µM | CC50 ([1]; NCI/ADR-RES (Ovarian Cancer)): 7.71 µM | CC50 ([1]; OVCAR-3 (Ovarian Cancer)): 6.34 µM | CC50 ([1]; OVCAR-4 (Ovarian Cancer)): 5.78 µM | CC50 ([1]; OVCAR-5 (Ovarian Cancer)): 5.96 µM | CC50 ([1]; OVCAR-8 (Ovarian Cancer)): 7.11 µM | CC50 ([1]; PC-3 (Prostate Cancer)): 6.01 µM | CC50 ([1]; RXF 393 (Renal Cancer)): 6.48 µM | CC50 ([1]; SF-268 (CNS Cancer)): 9.48 µM | CC50 ([1]; SK-MEL-2 (Melanoma)): 12.4 µM | CC50 ([1]; SK-MEL-5 (Melanoma)): 5.61 µM | CC50 ([1]; SK-MEL-28 (Melanoma)): 5.88 µM | CC50 ([1]; SK-OV-3 (Ovarian Cancer)): 66.7 µM | CC50 ([1]; SN12C (Renal Cancer)): 6.33 µM | CC50 ([1]; SNB-19 (CNS Cancer)): 7.01 µM | CC50 ([1]; SNB-75 (CNS Cancer)): 7.76 µM | CC50 ([1]; SW-620 (Colon Cancer)): 8.55 µM | CC50 ([1]; T-47D (Breast Cancer)): 7.77 µM | CC50 ([1]; TK-10 (Renal Cancer)): 19.3 µM | CC50 ([1]; U251 (CNS Cancer)): 5.86 µM | CC50 ([1]; UACC-62 (Melanoma)): 5.98 µM | CC50 ([1]; UACC-257 (Melanoma)): 25.7 µM | CC50 ([1]; UO-31 (Renal Cancer)): 5.44 µM | GI50 (glioblastoma (SF-295)): 1.61 µM | TGI (glioblastoma (SF-295)): 3.03E−6 | CC50 (glioblastoma (SF-295); read-out: LC50): 5.71 µM | GI50 (RPMI-8226): 0.3 µM | TGI (RPMI-8226): 1.37E−6 | CC50 (RPMI-8226; read-out: LC50): > 100 µM | GI50 (SR): 1.29 µM | TGI (SR): 4.33E−6 | CC50 (SR; read-out: LC50): > 100 µM
